Results on 19 compounds are retold here after ChEMBL document CHEMBL1155972, “From natural products to achiral drug prototypes: potent thrombin inhibitors based on P2/P3 dihydropyrid-2-one core motifs” (Bioorg Med Chem Lett, 2009).

As usually defined, the IC50 is the concentration that gives 50% inhibition. The term pKa denotes the pH at which an ionisable group is half protonated.

Data set [1] in a line: Inhibition of bovine trypsin. Also noted: species or system Bos taurus.
For the next data set, the target named is Prothrombin (Homo sapiens, UniProt P00734). The data set can be described thus: Inhibition of human thrombin.
A short description of data set [2]: Dissociation constant, pKa of the compound. Type of data set: physicochemical.

Turning to `COc1cccc(S(=O)(=O)Nn2ccc(C)c(CC(=O)NCc3ccc(C(=N)N)cc3)c2=O)c1`, the IC50 in data set [1] was found to be 15600 nM. In turn, `N=C(N)c1ccc(CNC(=O)[C@@H]2C[C@@H]3CCCC[C@@H]3N2C(=O)[C@H](NC(=O)[C@H](O)Cc2ccccc2)C(C2CCCCC2)C2CCCCC2)cc1` came in with an IC50 on Prothrombin of 3.4 nM.

As to `CC1=C(CC(=O)NCc2ccc(C(=N)N)cc2)C(=O)N(NS(=O)(=O)c2cc(C)ccc2C)CC1`, the IC50 at Prothrombin came to 6 nM; in data set [1] it was 374 nM. In data set [2], this compound returned a pKa of 8.7. In turn, `COc1cc(C)ccc1S(=O)(=O)Nn1ccc(C)c(CC(=O)NCc2ccc(C(=N)N)cc2)c1=O` registered an IC50 in data set [1] of 2020 nM. The compound also gave a pKa in data set [2] of 6.7. In the case of `CC1=C(CC(=O)NCc2ccc(C(=N)N)cc2)C(=O)N(NS(=O)(=O)c2cc(Cl)ccc2Cl)CC1`, the IC50 at Prothrombin was found to be 10 nM; in data set [1] it was 1250 nM. In the case of `Cc1ccc(C)c(S(=O)(=O)Nn2ccc(C)c(CC(=O)NCc3ccc(C(=N)N)cc3)c2=O)c1`, the IC50 in data set [1] came to 7130 nM. In other words, the single-digit micromolar range. As for `Cc1ccn(NS(=O)(=O)Cc2ccccc2)c(=O)c1CC(=O)NCc1ccc(C(=N)N)cc1`, the IC50 on Prothrombin amounted to 3960 nM; in data set [1] it was 14900 nM.

As for `CO[C@H](COS(=O)(=O)[O-])C(=O)N[C@@H](C(=O)N1[C@H](C(=O)NCCC2=CC[N+](=C(N)N)C2)C[C@@H]2C[C@H](O)[C@@H](O)C[C@@H]21)[C@H](Cl)C(C)C` [CHLORODYSINOSIN A], at Prothrombin, inhibition was half-maximal at 5.8 nM (IC50). As for `CC1=C(CC(=O)NCc2ccc(C(=N)N)cc2)C(=O)N(NS(=O)(=O)c2ccc(Cl)cc2F)CC1`, the results for the IC50 (on Prothrombin; in data set [1]) were 106 nM and 683 nM, respectively. Consider `Cc1ccn(NS(=O)(=O)c2ccccc2)c(=O)c1CC(=O)NCc1ccc(C(=N)N)cc1`, for which half-maximal inhibition in data set [1] (IC50) required 5770 nM. The compound further showed a pKa in data set [2] of 5.9. In the case of `CC1=C(CC(=O)NCc2ccc(C(=N)N)cc2)C(=O)N(NS(=O)(=O)c2c(C)cccc2Cl)CC1`, the IC50 at Prothrombin worked out at 3 nM; in data set [1], 286 nM.

Turning to `CC(C)[C@@H](Cl)[C@@H](NC(=O)[C@H](O)Cc1ccccc1)C(=O)N1[C@H](C(=O)NCc2ccc(C(=N)N)cc2)C[C@@H]2CCCC[C@@H]21`, the IC50 against Prothrombin is 1.6 nM. Take `Cc1ccn(NS(=O)(=O)c2cccc3ccccc23)c(=O)c1CC(=O)NCc1ccc(C(=N)N)cc1`: the IC50 came to 17100 nM at Prothrombin and 5.8 nM in data set [1].

As to `COc1cc(C)ccc1S(=O)(=O)NN1CCC(C)=C(CC(=O)NCc2ccc(C(=N)N)cc2)C1=O`, the IC50 came to 44 nM on Prothrombin and 117 nM in data set [1]. For `COc1cccc(S(=O)(=O)NN2CCC(C)=C(CC(=O)NCc3ccc(C(=N)N)cc3)C2=O)c1`, the IC50 on Prothrombin amounted to 11 nM; in data set [1], 860 nM. The same compound came in with a pKa in data set [2] of 8.8. With `CC1=C(CC(=O)NCc2ccc(C(=N)N)cc2)C(=O)N(NS(=O)(=O)c2cccc3ccccc23)CC1`, the results for the IC50 (on Prothrombin; in data set [1]) were 915 nM and 8.2 nM, respectively. Compound `CC[C@@H](C)[C@@H](NC(=O)[C@H](O)Cc1ccccc1)C(=O)N1[C@H](C(=O)NCc2ccc(C(=N)N)cc2)C[C@@H]2CCCC[C@@H]21` registered an IC50 at Prothrombin of 3.3 nM. `CO[C@H](COS(=O)(=O)[O-])C(=O)N[C@H](CC(C)C)C(=O)N1[C@H](C(=O)NCCC2=CC[N+](=C(N)N)C2)C[C@@H]2C[C@H](O)[C@@H](O)C[C@@H]21` [DYSINOSIN A] yielded an IC50 at Prothrombin of 46 nM. Against the preceding compound, the IC50 is about 14-fold higher. As to `CC1=C(CC(=O)NCc2ccc(C(=N)N)cc2)C(=O)N(NS(=O)(=O)c2ccccc2)CC1`, the IC50 is 42 nM on Prothrombin and 766 nM in data set [1].
